36 molecules from patent US20240101546A1, “HETEROARYL-ACETYLENES, PHARMACEUTICAL COMPOSITIONS THEREOF, AND THEIR THERAPEUTIC APPLICATIONS” (Eubulus Biotherapeutics Inc., priority 2020, published 2024) can be followed below.

In the experiment the test system is hepatocellular carcinoma cell line Hub-7. The experiment can be described thus: Cell proliferation assay, Hub-7 (CELL-TITER GLO). The conditions noted are these: Hub-7 cells, 24 h incubation, cell viability by CELL-TITER GLO, top concentration 10 μM; read-out: EC50, Inhibition of Hub-7 Cell Proliferation. Format: cell-based. The procedure, abridged:
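Hub-7 cells, 4,000 per well, seeded overnight, then exposed 24 h to compound from 10 μM top in 3-fold serial dilution. Viability read by CELL-TITER GLO luminescence; EC50 derived and binned into potency categories.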

For `C#Cc1nc(C(=O)NCc2ccccc2C(=O)OC)cs1` [Compound C74, Methyl 2-((2-ethynylthiazole-4-carboxamido)methyl)benzoate], the EC50 is 0.2 to 1 µM.

Regarding `C#Cc1nc(C(=O)NCCc2ccc(-c3cnn(C)c3)cc2)cs1` [Compound C75, 2-Ethynyl-N-(4-(1-methyl-1H-pyrazol-4-yl)phenethyl)thiazole-4-carboxamide], the EC50 lay within 0.2 to 1 µM. For the molecule `C#Cc1nc(C(=O)NCCc2ccc(-c3cn[nH]c3)cc2)cs1` [Compound C76, N-(4-(1H-Pyrazol-4-yl)phenethyl)-2-ethynylthiazole-4-carboxamide], the EC50 was in the range of 1 to 5 µM. The same measure for `C#Cc1nc(NC(=O)Cc2ccccc2)cs1` [Compound C77, N-(2-Ethynylthiazol-4-yl)-2-phenylacetamide]: 0.2 to 1 µM. The same measure for `C#Cc1nc(C(=O)NC2CCN(c3ccccc3)CC2)cs1` [Compound C78, 2-Ethynyl-N-(1-phenylpiperidin-4-yl)thiazole-4-carboxamide]: 0.2 to 1 µM; for `C#Cc1nc(C(=O)NCCc2ccc(-c3cccnc3)cc2)cs1` [Compound C79, 2-Ethynyl-N-(4-(pyridin-3-yl)phenethyl)thiazole-4-carboxamide]: 0.2 to 1 µM; for `C#Cc1nc(C(=O)NCCc2ccc(Br)cc2)cs1` [Compound C80, N-(4-Bromophenethyl)-2-ethynylthiazole-4-carboxamide]: 0.2 to 1 µM.

For the molecule `C#Cc1nc(C(=O)NCCc2cccc(NS(C)(=O)=O)c2)cs1` [Compound C81, 2-Ethynyl-N-(3-(methylsulfonamido)phenethyl)thiazole-4-carboxamide], the EC50 was in the range of 1 to 5 µM. Turning to `C#Cc1nc(C(=O)NCCc2cccc(NC(C)=O)c2)cs1` [Compound C82, N-(3-Acetamidophenethyl)-2-ethynylthiazole-4-carboxamide], the EC50 was in the range of 1 to 5 µM. For `C#Cc1nc(C(=O)NCc2ccc(-c3cnn(C)c3)cc2)cs1` [Compound C83, 2-Ethynyl-N-(4-(1-methyl-1H-pyrazol-4-yl)benzyl)thiazole-4-carboxamide], the EC50 was in the range of 1 to 5 µM. Regarding `C#Cc1nc(C(=O)NCCc2ccc(C(=O)OC)cc2)cs1` [Compound C84, Methyl 4-(2-(2-ethynylthiazole-4-carboxamido)ethyl)benzoate], the EC50 lay in the range of 1 to 5 µM.

`C#Cc1nc(C(=O)NCCc2cccc(N)c2)cs1` [Compound C85, N-(3-Aminophenethyl)-2-ethynylthiazole-4-carboxamide]: the EC50 lay within 1 to 5 µM. Turning to `C#Cc1nc(C(=O)NCc2ccc3c(c2)OCCO3)cs1` [Compound C86, N-((2,3-Dihydrobenzo[b][1,4]dioxin-6-yl)methyl)-2-ethynylthiazole-4-carboxamide], the EC50 was in the range of 1 to 5 µM. On to `C#Cc1nc(C(=O)NCCc2cccc([N+](=O)[O-])c2)cs1` [Compound C87, 2-Ethynyl-N-(3-nitrophenethyl)thiazole-4-carboxamide], for which the EC50 lay within 0.2 to 1 µM. The same measure for `C#Cc1nc(C(=O)NCCc2ccc(NC(C)=O)cc2)cs1` [Compound C88, N-(4-Acetamidophenethyl)-2-ethynylthiazole-4-carboxamide]: 1 to 5 µM.

Take `C#Cc1nc(C(=O)NCc2ccc(NC(C)=O)cc2)cs1` [Compound C89, N-(4-Acetamidobenzyl)-2-ethynylthiazole-4-carboxamide]: the EC50 is greater than 5 µM. Take `N#Cc1nc(C(=O)NCc2ccccc2)cs1` [Compound C90, N-Benzyl-2-cyanothiazole-4-carboxamide]: the EC50 is greater than 5 µM. As to `C#Cc1nc(C(=O)NCc2ccc(-c3cc[nH]n3)cc2)cs1` [Compound C91, N-(4-(1H-Pyrazol-3-yl)benzyl)-2-ethynylthiazole-4-carboxamide], the EC50 lay in the range of 1 to 5 µM. Consider `C#Cc1nc(C(=O)NCc2ccc(-c3cn[nH]c3)cc2)cs1` [Compound C92, N-(4-(1H-Pyrazol-4-yl)benzyl)-2-ethynylthiazole-4-carboxamide], for which the EC50 fell in the range of 1 to 5 µM. On to `C#Cc1nc(C(=O)NCc2ccc(-c3cccnc3)cc2)cs1` [Compound C93, 2-Ethynyl-N-(4-(pyridin-3-yl)benzyl)thiazole-4-carboxamide], for which the EC50 was 0.2 to 1 µM.

In the case of `C#Cc1nc(C(=O)NCc2cccc(NC(C)=O)c2)cs1` [Compound C94, N-(3-Acetamidobenzyl)-2-ethynylthiazole-4-carboxamide], the EC50 was 1 to 5 µM. Take `C#Cc1nc(C(=O)NCc2cccc(N)c2)cs1` [Compound C95, N-(3-Aminobenzyl)-2-ethynylthiazole-4-carboxamide]: the EC50 fell in the range of 1 to 5 µM. For `C#Cc1nc(C(=O)NCc2ccc3ncccc3c2)cs1` [Compound C96, 2-Ethynyl-N-(quinolin-6-ylmethyl)thiazole-4-carboxamide], the EC50 fell in the range of 1 to 5 µM. Take `C#Cc1nc(C(=O)NCCc2cccc(C(=O)OC)c2)cs1` [Compound C97, Methyl 3-(2-(2-ethynylthiazole-4-carboxamido)ethyl)benzoate]: the EC50 was 0.2 to 1 µM.

For the molecule `C#Cc1nc(C(=O)NCc2ccccc2)cn1C` [Compound C98, N-Benzyl-2-ethynyl-1-methyl-1H-imidazole-4-carboxamide], the EC50 was greater than 5 µM.

On to `C#Cc1nc(C(=O)NCCc2ccc(NS(C)(=O)=O)cc2)cs1` [Compound C99, 2-Ethynyl-N-(4-(methylsulfonamido)phenethyl)thiazole-4-carboxamide], for which the EC50 is 1 to 5 µM. In the case of `C#Cc1nc(C(=O)N(C)CCc2ccc([N+](=O)[O-])cc2)cs1` [Compound C100, 2-Ethynyl-N-methyl-N-(4-nitrophenethyl)thiazole-4-carboxamide], the EC50 lay in the range of 0.2 to 1 µM. As to `C#Cc1nc(C(=O)NCCc2ccc(S(C)(=O)=O)cc2)cs1` [Compound C101, 2-Ethynyl-N-(4-(methylsulfonyl)phenethyl)thiazole-4-carboxamide], the EC50 was greater than 5 µM. As to `C#Cc1nc(C(=O)NCCc2ccc(C#N)cc2)cs1` [Compound C102, N-(4-Cyanophenethyl)-2-ethynylthiazole-4-carboxamide], the EC50 was in the range of 0.2 to 1 µM. Take `C#Cc1nc(C(=O)NCc2ccc([N+](=O)[O-])cc2)cs1` [Compound C103, 2-Ethynyl-N-(4-nitrobenzyl)thiazole-4-carboxamide]: the EC50 is no more than 0.2 µM. For `C#Cc1nc(C(=O)NCc2ccc(C#N)cc2)cs1` [Compound C104, N-(4-Cyanobenzyl)-2-ethynylthiazole-4-carboxamide], the EC50 is 0.2 to 1 µM. The same measure for `C#Cc1nc(C(=O)NCCc2cccc(S(C)(=O)=O)c2)cs1` [Compound C105, 2-Ethynyl-N-(3-(methylsulfonyl)phenethyl)thiazole-4-carboxamide]: 1 to 5 µM; for `C#Cc1nc(C(=O)NCCc2ccccc2Cl)cs1` [Compound C106, N-(2-Chlorophenethyl)-2-ethynylthiazole-4-carboxamide]: 0.2 to 1 µM.

As to `C#Cc1nc(C(=O)NCc2cccc([N+](=O)[O-])c2)cs1` [Compound C107, 2-Ethynyl-N-(3-nitrobenzyl)thiazole-4-carboxamide], the EC50 is 0.2 to 1 µM. On to `C#Cc1nc(C(=O)NCc2ccc(S(C)(=O)=O)cc2)cs1` [Compound C108, 2-Ethynyl-N-(4-(methylsulfonyl)benzyl)thiazole-4-carboxamide], for which the EC50 fell in the range of 1 to 5 µM. The figure for `C#Cc1nc(C(=O)NCc2ncccc2Cl)cs1` [Compound C109, N-((3-Chloropyridin-2-yl)methyl)-2-ethynylthiazole-4-carboxamide] is 1 to 5 µM.
